Consider three molecules from patent publication US20210106703A1, “RADIOIMMUNOCONJUGATES IN COMBINATION WITH OTHER DRUGS AS TREATMENT AGAINST NHL” (Nordic Nanovector ASA, priority 2017, published 2021).

Holding throughout (format): cell-based, human
In assay [1] the test system is DOHH2 cells. Description: Alamar Blue cytotoxicity study. The following applies: Homo sapiens, DOHH-2; DOHH2, 72 h incubation after seeding; read-out: IC50. The protocol:
(§1) Cells were treated with either Humalutin, olaparib or a combination of both and seeded into 96 well-plates. At each time point after treatment, cells were incubated with Alamar Blue (Thermo Fisher, DALL1100) for 4 hours and fluorescence measurements were performed using a multiplate reader Fluoroskan ascent FL to assess cell proliferation and viability. All experiments were done in duplicates using 2 samples in each experiment. Data were normalized to the untreated controls.
(§2) Cells were incubated with 0.25, 0.5, 1, 2.5 or 5 μg/ml of Humalutin in cell culture flasks and incubated at 37° C./5% CO2. After 18-20 hours cells were washed and resuspended in fresh medium. Cell bound activity after washing was measured using a calibrated gamma detector (Cobra II auto-gamma detector, Packard Instrument Company, Meriden, Conn., USA). Cell concentration and viability was also measured after washing using Guava ViaCount Cell Dispersal Reagent for Flow Cytometry (Merck GaA, Darmstadt, Germany) and measured in a Guava EasyCyte 12HT (Merck KGaA, Darmstadt, Germany) to determine how well the cells survived the incubation. Cells were seeded in 96 well plates.
(§3) Cells were seeded in 96 well plates pre-coated with from 1 to 100 μM olaparib in 0.2 ml medium and incubated at 37° C./5% CO2 for 72 hours before the cytotoxic effect was measured using alamar blue cell viability assay.
(§4) Cells were incubated with either 0, 0.5 μg/ml or 1 μg/ml Humalutin and the same procedure as described before for treatment with humalutin alone and olaparib alone was followed. Concentrations of olaparib used were between 1 and 100 μM.
(§5) The Chou-Talalay model was used for synergy calculations using the Compusyn software. R (goodness of fit) was calculated for the individual treatments and should be over 0.90 in in vitro culture experiments in order to use the calculated combination index (CI). The CI is an indication of synergy: 0-0.9 is considered synergy. Synergysm grading was used as described in WO2006004917A2. […]
as §2, with “viability were” for “viability was”, “plates. Alamar blue viability measurements were performed 120 h after seeding.” for “plates.”
(In general: The colour change of resazurin is a common sign of viable cells or microbes.)

Assay [2] relates to Granta 519 cells. Description: Alamar Blue cytotoxicity study. The following applies: Homo sapiens; Granta 519, 72 h incubation after seeding; read-out: IC50. The protocol:
as §1, §2, §3, §4, §5
as §2, with “viability were” for “viability was”, “plates. Alamar blue viability measurements were performed 120 h after seeding.” for “plates.”

The subject of assay [3] is OCI-Ly8 cells. The assay is described as follows: Cell cycle analysis (PI, Muse flow cytometer). The following applies: OCI-Ly8, 1 μM inhibitor + ^177Lu-lilotomab, versus ^177Lu-lilotomab alone. The protocol: Cells were harvested at 0 […], and fixed in 70% ethanol at -20° C. for at least 3 h. After staining with the Muse® Cell Cycle Assay Kit (Merck Millipore, Molsheim, France) using propidium iodide in the dark at room temperature for 30 min, cell cycle distribution was analyzed using a Muse® flow cytometer. The percentage of cells in the G0/G1, S and G2/M was calculated (mean of three experiments in triplicate) and the effect of WEE-1 and MYT-1 kinase inhibitors on the cell cycle was assessed.
(A flow cytometer gives signals particle by particle.)

For assay [4], the system named is Ramos cells. Description: Apoptosis induction (Annexin V/7-AAD, Muse flow cytometer). The following applies: 6 MBq/mL radiolabelled mAb for 18 h, peak time 72 h. The protocol: (§6) Cells were harvested at 0, 2 h, 18 h, 1 d, 2 d, 3 d of RIT. At each time point, apoptosis was detected with […] from Merck Millipore (Annexin V Kit with 7-AAD) in the dark for 30 min at room temperature before analysis using Muse® flow cytometer

The subject of assay [5] is Rec-1 cells. Described as above. The following applies: Rec-1, 6 MBq/mL radiolabelled mAb for 18 h, peak time 72 h. The protocol:
as §6

Assay [6] deals with CD133 and CD44 at the DOHH2 cell surface. The assay is described as follows: Expression of stem cell markers after RIT (flow cytometry). The following applies: DOHH2, 6 MBq/mL for 18 h, up to 9 days post-RIT. The protocol:
Cells were harvested at 0, 2 h, 18 h and each day from 1 d to 10 d of RIT. At each time point, cells were fixed with PFA 4% for 10 minutes, washed twice with PBS and sterilely stored in PBS at 4° C. Stem cell markers were detected with anti-CD133-FITC (clone: AC133, Milteniy) and anti-CD44-APC (clone: IM7, Merck Millipore). 0.5×10^6 cells were saturated for 1 h in PBS-BSA 0.5%. Next cells were centrifuged and incubated with anti-CD133-FITC (2 μL) and anti-CD44-APC (0.125 μg) for 1 h at room temperature in the dark. Finally, cells were rinsed twice and analysed using Gallios® flow cytometer (Beckman Coulter).
For a preliminary study, investigation of the expression of CD133 and CD44 at the surface of cells treated for 18 h with 6 MBq/mL ^177Lu-lilotomab and ^177Lu-rituximab was done.

By IC50 is commonly meant the concentration that gives 50% inhibition. Regarding `CC1(C)CCC(CN2CCN(c3ccc(C(=O)NS(=O)(=O)c4ccc(NCC5CCOCC5)c([N+](=O)[O-])c4)c(Oc4cnc5[nH]ccc5c4)c3)CC2)=C(c2ccc(Cl)cc2)C1` [venetoclax], the IC50 in assay [1] amounted to 2980 nM; in assay [2] it was 331 nM.
In the case of `C=CCn1c(=O)c2cnc(Nc3ccc(N4CCN(C)CC4)cc3)nc2n1-c1cccc(C(C)(C)O)n1` [MK-1775], in assay [3], the “Proportion of cells in G2/M, inhibitor combined with ^177Lu-lilotomab” value is reported as “reduction of the fraction of G2/M cells”.

B1: Lutetium-177 [^177Lu]-lilotomab satetraxetan (conjugate, chains of the INN, looked up)
VH: EIQLQQSGPELVKPGASVKVSCKASGYSFTDYNMYWVKQSHGKSLEWIGYIDPYNGDTTYNQKFKGKATLTVDKSSSTAFIHLNSLTSEDSAVYYCARSPYGHYAMDYWGQGTSVTVSS
VL: DIVMTQSHKLLSTSVGDRVSITCKASQDVSTAVDWYQQKPGQSPKLLINWASTRHTGVPDRFTGSGSGTDYTLTISSMQAEDLALYYCRQHYSTPFTFGSGTKLEIK
modifications: 177Lu satetraxetan chelator conjugate
Take B1: the results for the Apoptosis level in assay [4] and in assay [5] were 33±8% and 67±18%, respectively. Besides, in assay [6], the “Proportion of cells expressing CD44 and CD133” value was “strongly increased”.
